Measured values from a melting point compilation (Tetko et al.; mined from patent text by program, amines drawn as free bases though some values may be those of a salt).

First: CCOc1ccc2c(c1)CCN(C(=O)OCc1ccccc1)C21CCC(C(=O)O)(C(=O)O)CC1
Second: CCNC1CCc2[nH]c3ccc(OCc4ccccc4)cc3c2C1 (configuration not stated)
The melting point of the first is higher: 184 to 185 °C for the first, 117 to 118 °C for the second.

Compared with CNC(=O)C1(Nc2nc(Nc3cc4c(cc3OC)CCN(CC(=O)N(C)C)CC4)ncc2Cl)CC1, COc1ccc(CC(=O)NCCc2cc3c(cc2C)CCC3)cc1OC is higher in melting point: 118 to 125 °C for the first, 144 to 145 °C for the second.

First: CCOc1ccc(CO)c(Oc2ccc(Cl)cc2Cl)n1
Second: O=C(c1ccc(F)c(Cl)c1)c1ccc(F)c(Cl)c1
The melting point of the first is higher: 106 to 107 °C for the first, 93 °C for the second.

Compared with C#CCN(c1c(Br)cc(Br)cc1Br)[N+](=O)[O-], Cc1cc(F)cc([N+](=O)[O-])c1C#N is higher in melting point: 58 to 58.5 °C for the first, 61 to 63 °C for the second.

Compared with N#Cc1c(N2CCCCC2)cc(-c2ccc3ccccc3c2)c2c1C(=O)c1ccccc1-2, N#Cc1cc(-c2c3ccccc3cc3sc4ccccc4c23)cc(C#N)c1O is higher in melting point: 182 to 184 °C for the first, 274 to 276 °C for the second.

First: CNC(=O)Nc1ccc(Oc2ccc3sncc3c2)cc1
Second: N#CCc1ccc(Oc2ccc3c(c2)S(=O)(=O)NC2CCCN32)cc1 (configuration not stated)
The melting point of the first is higher: 178 °C for the first, 156 to 158 °C for the second.

First: [O-][N+](=CC=Cc1ccccc1)c1ccccc1
Second: N#Cc1cc([N+](=O)[O-])ccc1-c1ccccc1
The melting point of the first is higher: 150 to 152 °C for the first, 111 to 115 °C for the second.

First: CC(=O)CC(=O)Nc1cccc(OC(=O)NC2CCCCC2)c1
Second: O=C(NC1CCCCC1)NS(=O)(=O)c1ccc2c(c1)CCN(C(=O)N1CCCCCC1)CC2
The melting point of the first is higher: 159 °C for the first, 155 to 156 °C for the second.

First: Oc1nc2cc(Cl)cc(Cl)c2c(O)c1O
Second: Cc1nc2ncnn2c2c1CCN2c1c(Cl)cccc1Cl
The melting point of the first is higher: 270 to 273 °C for the first, 192 to 194 °C for the second.

First: CCC(C)(C)Nc1c(NCc2ccc(F)cc2F)c(=O)c1=O
Second: C#CCOc1cc2c(=O)cc(C(=O)OCC)n(CC#C)c2ccc1=O
The melting point of the first is higher: 242 to 244 °C for the first, 169 °C for the second.

First: O=C(CCl)Nc1csc(Br)n1
Second: O=CCCNC(=O)c1cc(Br)c(Br)[nH]1
The melting point of the first is lower: 146 to 148 °C for the first, 160 to 163 °C for the second.

First: CC(C)N1C(=O)NC(c2ccc3c(c2)OCCO3)c2cc3c(cc21)OCO3 (configuration not stated)
Second: O=c1cc(-c2ccc3c(c2)CCCC3)[nH]c2ccccc12
The melting point of the first is lower: 185 to 187 °C for the first, 241 to 250 °C for the second.

Compared with COc1ccc(-c2ccc(S(=O)(=O)CC(C)N(O)C=O)cc2)cc1 (configuration not stated), Cc1nc(-c2ccc(F)cc2)c(-c2ccc(S(C)(=O)=O)cc2)o1 is lower in melting point: 197 to 198 °C for the first, 158 to 159 °C for the second.

First: CCC(=O)C(Oc1cc(C#N)cc(C#N)c1)C(=O)OC (configuration not stated)
Second: N#Cc1cccc(-c2ccc(O)c(-c3nc4cc(C#N)ccc4[nH]3)c2)c1
The melting point of the first is lower: 93 to 95 °C for the first, 348 to 350 °C for the second.

First: CCCc1nc2c(C)ccc(OCc3ccccc3)c2[nH]1
Second: CCc1nc(-c2cccc(C)c2)c(-c2ccnc(N(C)C(=O)Cc3ccccc3)c2)s1
The melting point of the first is higher: 192 to 194 °C for the first, 75 to 76 °C for the second.

First: COc1ccc(-c2csc(Nc3ccncc3)n2)cc1OC
Second: COc1ccc(CNc2nc(OCc3ccccn3)ncc2C(N)=O)cc1Cl
The melting point of the first is lower: 205 to 207 °C for the first, 208 to 209 °C for the second.

O=C(O)COc1ccc(-c2cc(O)c(SCCc3ccccc3)c(=O)o2)cc1 and CCc1oc2ccccc2c1C(=O)c1ccc(OC(C)C(=O)O)cc1 (configuration not stated) cannot be ordered by melting point: 182 to 183 °C for the first, 182 to 184 °C for the second.

Compared with CNc1ncnc2c1ncn2C1OC(CO)C(O)C1F (configuration not stated), Nc1ccn([C@@H]2O[C@H](CO)[C@@H](O)/C2=C\F)c(=O)n1 is higher in melting point: 140 °C for the first, 166 °C for the second.

First: Cc1c(C(=O)NCc2ccc3c(Br)c(OC(Cc4ccccc4)C(=O)O)ccc3c2)oc2ccccc12 (configuration not stated)
Second: COc1ccc(CN(C)CCCc2ccc(NC(=O)c3cccc4c(=O)c5cccc(F)c5[nH]c34)cc2)cc1OC
The melting point of the first is lower: 110 to 113 °C for the first, 158 °C for the second.

COc1ccc(CC(C(N)=O)S(C)=O)cc1C(=O)NCc1ccc(C(F)(F)F)cc1 (configuration not stated) and CCCCN(Cc1ccc(-c2ccccc2S(=O)(=O)NC(=O)c2ccccc2Cl)cc1)C(=O)N(C)c1ccccc1C(F)(F)F cannot be ordered by melting point: 170 to 171 °C for the first, over 60 °C for the second.

Compared with O=C(OCc1nc(/C=C/c2cn(-c3ccccc3)nc2O)cs1)c1ccccc1, CC(C)(C)CCN1C(=O)C(NC(=O)Oc2ccccc2)C(=O)N(c2ccccc2)c2ccccc21 (configuration not stated) is lower in melting point: 215 to 216 °C for the first, 170 to 172 °C for the second.

Compared with CCOc1ccc(Nc2n[nH]c3ncnc(Nc4cccc(Cl)c4)c23)cc1, Nc1ncnc2c1c(-c1ccc(Oc3ccccc3)cc1)cn2CC(=O)NCCOCCO is lower in melting point: 232 to 233 °C for the first, 145 to 147 °C for the second.

Compared with CCCCn1c(N)nc2ccc(C3CCc4cncn43)cc21 (configuration not stated), CCCc1nc2c(N)nc3ccccc3c2n1CCCCCS(C)(=O)=O is lower in melting point: 196 °C for the first, 179 to 181 °C for the second.

First: Cc1noc(NS(=O)(=O)c2ccccc2-c2ccc(-c3ccncn3)cc2)c1C
Second: COC(=O)Cc1cnc(-c2ccccc2)n1Cc1ccc([N+](=O)[O-])cc1
The melting point of the first is higher: 211 to 214 °C for the first, 113 to 116 °C for the second.

First: CCCc1c(C=O)ncn1S(=O)(=O)N(C)C
Second: CC=Cc1cnc(C2=NC(C)(C(C)C)C(=O)N2)c(C(=O)O)c1 (configuration not stated)
The melting point of the first is lower: 57 to 58 °C for the first, 175 to 176 °C for the second.

First: CCOC(=O)C(=CC=C(O)C(=O)O)Sc1ccccc1
Second: C/C(=C\c1ccc(OCC(=O)O)cc1)[N+](=O)[O-]
The melting point of the first is higher: 172 °C for the first, 149 to 151 °C for the second.

First: N#Cc1cccc(-n2c(=O)c(CCCc3ccncc3)cc3cccnc32)c1
Second: COc1ccc(CCNCCCOc2ccccc2NC(=O)c2cccc3[nH]ccc23)cc1OC
The melting point of the first is higher: 202 to 204 °C for the first, 182 °C for the second.

First: NC(=O)C1=C(O)C(NC(=S)c2ccccc2)C2CC3Sc4c(Cl)ccc(O)c4C(=O)C3=C(O)C2(O)C1=O (configuration not stated)
Second: O=C1OC2(CCN(C(=O)Nc3cnc(-c4cccc(O)c4)cn3)CC2)c2ccccc21
The melting point of the first is lower: 222 °C for the first, 257 to 259 °C for the second.

Compared with c1ccc(OCCSCc2nnc(-c3ccc(OCCCN4CCSCC4)cc3)o2)cc1, O=C1OC2(CCN(CCC(O)c3ccccc3)CC2)c2ccccc21 (configuration not stated) is higher in melting point: 85 °C for the first, 144 to 146 °C for the second.

First: NCC1Cc2cccc(-c3cccc(Cl)c3)c2O1 (configuration not stated)
Second: Nc1cccc(-c2nc3ncccc3o2)c1
The melting point of the first is lower: 150 to 154 °C for the first, 179 to 180 °C for the second.

Compared with CCCCCCCCCCCCSc1nnn[nH]1, CCCCCCCCCCCCCCCCCCNC(=O)C(=O)NCCc1ccc(O)cc1 is higher in melting point: 85 to 87 °C for the first, 167 °C for the second.

First: C=C(C)CN1Cc2cc(Cl)cc3[nH]c(=S)n(c23)[C@@H](C)C1
Second: CCOC(=O)c1sc2ccc3c(c2c1Cl)O[C@@H](CO)CO3
The melting point of the first is higher: 171 °C for the first, 165 to 166 °C for the second.

Compared with CCCCCCCCc1ccc(OC2=CC(=O)OC2O)cc1 (configuration not stated), CC(C)(C)OC(=O)c1ncn2c1C1CCCN1C(=O)c1cnccc1-2 (configuration not stated) is higher in melting point: 59 to 61 °C for the first, 217 to 218 °C for the second.

First: O=C(CCS)N[C@@H](Cc1c[nH]cn1)C(=O)O
Second: CON(C)C(=O)c1nc(C(C)(C)C)c(O)c(C(C)(C)C)n1
The melting point of the first is higher: 219 °C for the first, 137 to 138 °C for the second.

First: CN1CCC2(CC1)OC(c1ccc(Cl)cc1)C1CCCCN12 (configuration not stated)
Second: Cc1nnc(-c2ccc3occ(-c4cc(Cl)ccc4F)c3c2)o1
The melting point of the first is lower: 122 to 124 °C for the first, 187 to 188 °C for the second.

First: COc1cc(Nc2c(C#N)cnc3cc(-c4csc(C5OCCO5)c4)sc23)c(Cl)cc1Cl
Second: OCC1Cc2c(c(Cl)cc3c(-c4c(F)cccc4F)noc23)O1 (configuration not stated)
The melting point of the first is higher: 219 to 221 °C for the first, 166 to 169 °C for the second.
